Assay results: ChEMBL document CHEMBL3046747, “Assessment of species specificity of moulting accelerating compounds in Lepidoptera: comparison of activity between Bombyx mori and Spodoptera littoralis by in vitro reporter and in vivo toxicity assays” (Pest Manag Sci, 2010)

Experiments:
[1] = biological target: T1, Ecdysone receptor (Spodoptera littoralis) (UniProt E3UJZ5); assay: Agonist activity at ecdysone receptor in Spodoptera littoralis Sl2 cells after 24 hr by luciferase reporter gene assay relative to tebufenozide; type: cell-based
T1 sequence (whole entry): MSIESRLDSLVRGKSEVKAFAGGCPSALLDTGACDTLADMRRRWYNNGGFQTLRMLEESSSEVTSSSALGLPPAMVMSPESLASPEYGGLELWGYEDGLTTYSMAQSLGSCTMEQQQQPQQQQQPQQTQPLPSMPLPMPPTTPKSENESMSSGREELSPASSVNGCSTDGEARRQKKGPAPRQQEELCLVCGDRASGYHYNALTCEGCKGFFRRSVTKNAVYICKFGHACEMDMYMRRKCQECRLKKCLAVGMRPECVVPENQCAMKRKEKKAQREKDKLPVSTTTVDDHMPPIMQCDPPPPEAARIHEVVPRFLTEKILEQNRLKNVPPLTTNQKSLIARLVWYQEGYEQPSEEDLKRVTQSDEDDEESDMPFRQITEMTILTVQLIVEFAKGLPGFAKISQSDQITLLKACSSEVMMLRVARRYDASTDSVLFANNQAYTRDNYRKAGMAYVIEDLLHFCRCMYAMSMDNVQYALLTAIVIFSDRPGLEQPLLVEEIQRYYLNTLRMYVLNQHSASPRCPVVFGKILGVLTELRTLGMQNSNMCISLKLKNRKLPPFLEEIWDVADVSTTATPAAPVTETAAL

[2] = biological target: T2, Ecdysone receptor (Bombyx mori) (UniProt P49881); assay: Agonist activity at ecdysone receptor in Bombyx mori Bm5 cells after 24 hr by luciferase reporter gene assay relative to tebufenozide; type: cell-based
T2 sequence (whole entry): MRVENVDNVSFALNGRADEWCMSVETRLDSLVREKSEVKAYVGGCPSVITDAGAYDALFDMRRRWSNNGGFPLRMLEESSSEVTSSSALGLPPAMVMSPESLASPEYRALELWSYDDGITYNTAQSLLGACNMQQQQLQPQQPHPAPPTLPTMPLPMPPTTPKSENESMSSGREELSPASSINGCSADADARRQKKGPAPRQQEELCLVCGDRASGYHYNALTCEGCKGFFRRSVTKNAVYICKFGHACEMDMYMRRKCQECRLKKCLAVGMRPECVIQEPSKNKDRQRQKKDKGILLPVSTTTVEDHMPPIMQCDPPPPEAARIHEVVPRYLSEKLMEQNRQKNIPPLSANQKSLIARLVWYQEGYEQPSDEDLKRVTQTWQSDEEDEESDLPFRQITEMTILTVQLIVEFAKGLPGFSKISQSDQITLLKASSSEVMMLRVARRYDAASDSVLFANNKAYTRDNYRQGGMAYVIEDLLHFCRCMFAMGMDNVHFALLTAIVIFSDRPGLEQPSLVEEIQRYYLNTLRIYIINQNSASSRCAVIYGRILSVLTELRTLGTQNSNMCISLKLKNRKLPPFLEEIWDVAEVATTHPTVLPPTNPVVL

Ecdysone receptor [3] = biological target: T3, Ecdysone receptor (Spodoptera littoralis, UniProt E3UJZ5); assay: Agonist activity at ecdysone receptor in Spodoptera littoralis Sl2 cells after 24 hr by luciferase reporter gene assay; type: cell-based; conditions: read-out: pEC50 (converted)
T3 sequence (E3UJZ5 whole entry): T1 sequence (whole entry)

Ecdysone receptor [4] = biological target: T4, Ecdysone receptor (Bombyx mori, UniProt P49881); assay: Agonist activity at ecdysone receptor in Bombyx mori Bm5 cells after 24 hr by luciferase reporter gene assay; type: cell-based; conditions: read-out: pEC50 (converted)
T4 sequence (P49881 whole entry): T2 sequence (whole entry)

[5] = Selectivity ratio of EC50 for ecdysone receptor in Bombyx mori Bm5 cells to EC50 for ecdysone receptor in Spodoptera littoralis Sl2 cells; type: cell-based
Spodoptera littoralis = assay: Larvicidal activity against Spodoptera littoralis assessed as mortality applied topically after 1 week; type: functional
Bombyx mori = assay: Larvicidal activity against Bombyx mori assessed as mortality applied topically after 1 week; type: functional
[6] = Ratio of LD50 for Spodoptera littoralis to LD50 for Bombyx mori; type: functional

SMILES | Efficacy [1] | Efficacy [2] | EC50 (Ecdysone receptor [3]) | EC50 (Ecdysone receptor [4]) | Ratio EC50 [5] | pLD50 (Spodoptera littoralis) | pLD50 (Bombyx mori) | Ratio [6]
Cc1cc(C)c(Cl)c(C(=O)N(NC(=O)c2ccc(Cl)cc2)C(C)(C)C)c1 | 101% | 93% | 1.07 µM | 0.447 µM | 0.42 |  |  | 
CC(C)(C)N(NC(=O)c1ccccc1)C(=O)c1ccccc1 [RH-5849] | 91% | 87% | 1.29 µM | 0.437 µM | 0.34 | 4.75 | 5.55 | 17.8
COc1ccc(C(=O)NN(C(=O)c2cc(C)cc(C)c2Cl)C(C)(C)C)cc1 | 105% | 100% | 2.04 µM | 1.23 µM | 0.6 |  |  | 
CCOc1ccccc1C(=O)N(NC(=O)c1ccc(OC)cc1)C(C)(C)C | 45% | 59% | 21.9 µM | 19.1 µM | 0.87 |  |  | 
CC(C)(C)N(NC(=O)c1ccc(Br)cc1)C(=O)c1ccccc1Cl | 77% | 106% | 0.437 µM | 0.151 µM | 0.34 | <5.39 | 6.27 | > 7.59
CCCCCc1ccc(C(=O)NN(C(=O)c2cc(C)cc(C)c2Cl)C(C)(C)C)cc1 | 76% | 45% | 3.55 µM | 1.78 µM | 0.5 |  |  | 
CCCCc1ccc(C(=O)NN(C(=O)c2ccccc2OCC)C(C)(C)C)cc1 | 41% | 20% | 7.76 µM | 16.2 µM | 2.09 |  |  | 
Cc1c(C(=O)NN(C(=O)c2ccccc2Cl)C(C)(C)C)ccc2c1CCCO2 | 108% | 106% | 0.00537 µM | 0.00288 µM | 0.53 | <4.4 | 6.95 | > 355
Cc1cc(C)cc(C(=O)C2(NC(=O)c3ccc4c(c3C)CCCO4)CCCCC2)c1 | 106% | 102% | 0.00339 µM | 0.00437 µM | 1.29 | <5.39 | 6.53 | > 13.8
CCCCc1ccc(C(=O)NN(C(=O)c2cc(C)cc(C)c2Cl)C(C)(C)C)cc1 | 69% | 45% | 1.12 µM | 1.15 µM | 1.02 |  |  | 
Cc1ccc(C(=O)NN(C(=O)c2cc(C)cc(C)c2Cl)C(C)(C)C)cc1 | 85% | 108% | 1.35 µM | 0.302 µM | 0.22 |  |  | 
Cc1cc(C)cc(C(=O)N(NC(=O)c2ccc(C(C)(C)C)cc2)C(C)(C)C)c1 | 69% | 88% | 0.00708 µM | 0.00708 µM | 1.01 | 4.72 | 7.19 | > 295
COc1cccc(C(=O)NN(C(=O)c2cc(C)cc(C)c2)C(C)(C)C)c1C [METHOXYFENOZIDE] | 100% | 103% | 0.00603 µM | 0.00339 µM | 0.56 | 7.68 | 8.18 | 3.16
CC(C)(C)N(NC(=O)c1ccccc1F)C(=O)c1ccccc1Cl | 105% | 93% | 0.288 µM | 0.145 µM | 0.5 | <4.7 | 7.37 | > 468
CC(C)(C)N(NC(=O)c1cccc(Cl)c1)C(=O)c1ccccc1Cl | 75% | 119% | 1.7 µM | 0.309 µM | 0.18 | <5.44 | 5.82 | > 2.4
CC(C)(C)N(NC(=O)c1ccccc1)C(=O)c1ccccc1C(F)(F)F | 98% | 92% | 0.794 µM | 0.871 µM | 1.1 |  |  | 

SMILES | Efficacy [1] | Efficacy [2] | EC50 (Ecdysone receptor [3]) | EC50 (Ecdysone receptor [4]) | Ratio EC50 [5] | pLD50 (Spodoptera littoralis) | pLD50 (Bombyx mori) | Ratio [6]
Cc1ccccc1C(=O)N(NC(=O)c1cccc(F)c1)C(C)(C)C | 120% | 92% | 0.457 µM | 0.324 µM | 0.7 |  |  | 
Cc1cc(C)cc(C(=O)N(NC(=O)c2cccc(C)c2C)C(C)(C)C)c1 | 63% | 82% | 0.0162 µM | 0.011 µM | 0.68 | 6.44 | 7.29 | 7.08
CCC(CC)(NC(=O)c1ccc2c(c1C)CCCO2)C(=O)c1cc(C)cc(C)c1 | 104% | 113% | 0.166 µM | 0.191 µM | 1.15 |  |  | 
CCc1ccc(C(=O)NN(C(=O)c2cc(C)cc(C)c2)C(C)(C)C)cc1 [TEBUFENOZIDE] | 100% | 100% | 0.00219 µM | 0.00112 µM | 0.51 | 6.58 | 7.6 | 10.5
Cc1cc(C)cc(C(=O)N(NC(=O)c2ccc3c(c2C)CCCO3)C(C)(C)C)c1 [CHROMAFENOZIDE] | 103% | 98% | 0.00263 µM | 0.001 µM | 0.38 | 7.53 | 7.55 | 1.12
Cc1cc(C)c(Cl)c(C(=O)N(NC(=O)c2ccc3c(c2C)CCCO3)C(C)(C)C)c1 | 114% | 95% | 0.0676 µM | 0.0331 µM | 0.49 | <4.36 | 5.01 | > 4.47
CCc1ccc(C(=O)NN(C(=O)c2cc(C)cc(C)c2Cl)C(C)(C)C)cc1 | 83% | 85% | 0.339 µM | 0.115 µM | 0.34 | <4.41 | 4.94 | > 3.39
Cc1cc(C)cc(C(=O)N(NC(=O)c2ccccc2)C(C)(C)C)c1 | 75% | 118% | 0.501 µM | 0.2 µM | 0.39 | <5.49 | 5.98 | > 3.09
CCc1ccc(C(=O)NC(CC)(CC)C(=O)c2cc(C)cc(C)c2)cc1 | 96% | 95% | 4.27 µM | 1.26 µM | 0.29 |  |  | 
CC(C)c1ccc(C(=O)NN(C(=O)c2ccccc2Cl)C(C)(C)C)cc1 | 95% | 116% | 0.0174 µM | 0.00661 µM | 0.38 |  |  | 
CCOc1ccccc1C(=O)N(NC(=O)c1ccc(Cl)cc1)C(C)(C)C | 80% | 74% | 9.55 µM | 7.76 µM | 0.81 |  |  | 
CCCCCc1ccc(C(=O)NN(C(=O)c2ccccc2Cl)C(C)(C)C)cc1 | 86% | 97% | 0.324 µM | 0.427 µM | 1.32 |  |  | 
Cc1cc(C)c(Cl)c(C(=O)N(NC(=O)c2ccccc2)C(C)(C)C)c1 | 87% | 92% | 1.74 µM | 1.17 µM | 0.68 |  |  | 
CC(C)(C)N(NC(=O)c1ccccc1)C(=O)c1ccc(Cl)c(Cl)c1Cl | 95% | 79% | 5.25 µM | 3.63 µM | 0.69 | <5.4 | <5.4 | 
CCCc1ccc(C(=O)NN(C(=O)c2ccccc2Cl)C(C)(C)C)cc1 | 75% | 107% | 0.0741 µM | 0.0309 µM | 0.42 |  |  | 
CCOc1ccccc1C(=O)N(NC(=O)c1ccc(CC)cc1)C(C)(C)C | 89% | 92% | 6.92 µM | 2.88 µM | 0.42 |  |  | 
